Measurements: patent publication US6849644B2, “Isoquinoline derivatives useful in the treatment of CNS disorders” (SmithKline Beecham p.l.c., priority 2000, dated 2005)
Where a name gives a salt, the structure may show the parent alone.

molecular target: T1, human cloned 5-HT6 receptors (Homo sapiens, UniProt P50406); assay: 5-HT6 receptor binding affinity (procedures outlined in WO 98/27081)
T1 construct: expressed in transfected cells
Excerpt: Compounds can be tested following the procedures outlined in WO 98/27081.

T1 sequence (P50406 whole entry): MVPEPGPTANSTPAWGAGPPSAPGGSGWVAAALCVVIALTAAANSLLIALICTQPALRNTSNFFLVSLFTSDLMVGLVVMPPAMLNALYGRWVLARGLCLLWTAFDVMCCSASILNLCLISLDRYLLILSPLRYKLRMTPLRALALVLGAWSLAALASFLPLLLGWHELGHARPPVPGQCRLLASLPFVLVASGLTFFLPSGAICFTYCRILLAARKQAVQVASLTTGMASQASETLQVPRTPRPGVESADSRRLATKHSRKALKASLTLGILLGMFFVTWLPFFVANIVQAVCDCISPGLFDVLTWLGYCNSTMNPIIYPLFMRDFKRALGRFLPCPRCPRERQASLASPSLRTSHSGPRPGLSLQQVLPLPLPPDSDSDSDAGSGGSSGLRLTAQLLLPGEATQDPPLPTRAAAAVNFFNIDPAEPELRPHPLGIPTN

Ki [nM] | Compound
1.26 to 6.31 | COc1ccc2ccn(S(=O)(=O)c3ccc4c(c3)CNCC4)c2c1 [Example E19, 7-(6-Methoxy-indole-1-sulfonyl)-1,2,3,4-tetrahydro-isoquinoline]
1.26 to 6.31 | Cc1ccc2ccn(S(=O)(=O)c3ccc4c(c3)CNCC4)c2c1 [Example E20, 7-(6-Methyl-indole-1-sulfonyl)-1,2,3,4-tetrahydro-isoquinoline]
1.26 to 6.31 | O=S(=O)(c1ccc2c(c1)CNCC2)n1ccc2cc(F)c(F)cc21 [Example E23, 7-(5,6-Difluoro-indole-1-sulfonyl)-1,2,3,4-tetrahydro-isoquinoline]
1.26 to 6.31 | O=S(=O)(c1ccc2c(c1)CNCC2)n1ccc2ccccc21 [Example E1, 7-(Indole-1-sulfonyl)-1,2,3,4-tetrahydro-isoquinoline Hydrochloride]
1.26 to 6.31 | O=S(=O)(c1ccc2c(c1)CNCC2)n1c(-c2ccccc2)cc2cc(F)ccc21 [Example E13, 7-(5-Fluoro-2-phenyl-indole-1-sulfonyl)-1,2,3,4-tetrahydro-isoquinoline]
1.26 to 6.31 | O=S(=O)(c1ccc2c(c1)CNCC2)n1c2c(c3ccccc31)CCCC2 [Example E9, 9-(1,2,3,4-Tetrahydro-isoquinoline-7-sulfonyl)-2,3,4,9-tetrahydro-1H-carbazole]
1.26 to 6.31 | Cc1cn(S(=O)(=O)c2ccc3c(c2)CNCC3)c2ccccc12 [Example E10, 7-(3-Methyl-indole-1-sulfonyl)-1,2,3,4-tetrahydro-isoquinoline]
1.26 to 6.31 | O=S(=O)(c1ccc2c(c1)CNCC2)n1ccc2ccc(C(F)(F)F)cc21 [Example E24, 7-(6-Trifluoromethyl-indole-1-sulfonyl)-1,2,3,4-tetrahydro-isoquinoline]
1.26 to 6.31 | O=S(=O)(c1ccc2c(c1)CNCC2)n1cc(-c2ccccc2)c2ccccc21 [Example E35, 7-(3-Phenyl-indole-1-sulfonyl)-1,2,3,4-tetrahydro-isoquinoline Hydrochloride]
1.26 to 6.31 | Cc1cccc2c1ccn2S(=O)(=O)c1ccc2c(c1)CNCC2 [Example E21, 7-(4-Methyl-indole-1-sulfonyl)-1,2,3,4-tetrahydro-isoquinoline]
1.26 to 6.31 | O=S(=O)(c1ccc2c(c1)CNCC2)n1ccc2ccc(F)cc21 [Example E22, 7-(6-Fluoro-indole-1-sulfonyl)-1,2,3,4-tetrahydro-isoquinoline]
1.26 to 6.31 | O=S(=O)(c1ccc2c(c1)CNCC2)n1ccc2c(Cl)cccc21 [Example E17, 7-(4-Chloro-indole-1-sulfonyl)-1,2,3,4-tetrahydro-isoquinoline]
1.26 to 6.31 | O=S(=O)(c1ccc2c(c1)CNCC2)n1c2ccccc2c2ccccc21 [Example E26, 9-(1,2,3,4-tetrahydro-isoquinoline-7-sulfonyl)-9H-carbazole]
1.26 to 6.31 | O=S(=O)(c1ccc2c(c1)CNCC2)n1ccc2ccc(Cl)cc21 [Example E16, 7-(6-Chloro-indole-1-sulfonyl)-1,2,3,4-tetrahydro-isoquinoline]
